Results from patent US20250262198A1, “METHOD FOR TREATING MULTIPLE SCLEROSIS” (BEIJING INNOCARE PHARMA TECH CO., LTD., priority 2022, published 2025).

Assays:
[1] = system: MOG35-55-induced EAE mouse model; assay: MOG35-55-induced EAE mouse model of multiple sclerosis, oral orelabrutinib; type: in vivo, C57BL/6 mouse
Method: Multiple sclerosis (MS) is a chronic neuroinflammatory demyelinating disorder of the central nervous system (CNS). EAE (Experimental Autoimmune Encephalomyelitis) is the most common animal model of human MS as it is especially useful to investigate neuroinflammatory pathways. The synthesized peptide MOG35-55-induced EA E mouse model was used to evaluate the therapeutic potential of orelabrutinib. 100 μL emulsion consisted of 0.75 mg/ml MOG35-55 and 4 mg/mL CFA were injected subcutaneously into two different sites on each hind flank of each C57BL/6 mouse. 300 ng of pertussis toxin in 100 μL of PBS were injected intraperitoneally at the day of immunization and two days later. Mice were randomized into 2 groups as follows: vehicle and orelabrutinib 30 mg/kg/day. Each group had 10 animals. On the day of immunization, animals were dosed QD by PO gavage with either vehicle or test compound for 21 days.

[2] = system: patients with relapsing-remitting multiple sclerosis (RRMS); assay: Randomized, double-blind, placebo-controlled phase 2 study of orelabrutinib in RRMS patients (Core part); type: in vivo, human; conditions: for percent reduction of cumulative number of new Gd+T1 brain lesions relative to placebo: ITT population; for Adjusted mean cumulative number of new Gd+T1 lesions from W 4 to W 24 / Adjusted mean cumulative number of new Gd+T1 lesions at Week 12 / % Reduction of cumulative number of new Gd+T1 lesions from Week 4 to Week 24 vs placebo/50 mg QD switch arm / % Reduction of cumulative number of new Gd+T1 brain lesions vs placebo / Annualized relapse rate (ARR): PHS population; for Adjusted mean cumulative number of new Gd+T1 lesions at Week 12: placebo 4.34
Method: This is a randomized, double-blind, placebo-controlled, phase 2 study of orelabrutinib in patients with relapsing-remitting multiple sclerosis (RRMS) that consists of 2 parts: a Core part and an Open-label Extension (OLE) part. The Core part is completed, and the OLE part is on-going.
The completed Core part consisted of a 4-week screening period and 24-week treatment period. Patients with RRMS were randomly assigned to 1 of 4 treatment groups in a 1:1:1:1 ratio: placebo, orelabrutinib 50 mg once daily (QD), orelabrutinib 50 mg twice daily (BID), or orelabrutinib 80 mg QD. At Week 13, patients in the placebo cohort were switched to orelabrutinib 50 mg QD.
Patients with RRMS were randomly assigned to 1 of 4 treatment groups: placebo, orelabrutinib (50 mg, once daily [QD]), orelabrutinib (80 mg QD) and orelabrutinib (50 mg, twice daily [BID]) at a 1:1:1:1 ratio. • Cohort 1: Placebo (Week 1-12)/orelabrutinib 50 mg QD (Week 13-24) • Cohort 2: Orelabrutinib 50 mg QD (Week 1-24) • Cohort 3: Orelabrutinib 80 mg QD (Week 1-24) • Cohort 4: Orelabrutinib 50 mg BID (Week 1-24)
At week 12 of the treatment period, subjects in Cohort 1 were switched to orelabrutinib at a starting daily dose of 50 mg. A separate open-label extension (OLE) study was developed to allow continued dosing, provided that safety and tolerability were acceptable.
Placebo or orelabrutinib was orally administered daily starting on Day 1 of the treatment period. Subjects returned to study site on Day 8 and every 4 weeks starting from Day 1 for trial visits and were assessed for safety and efficacy.
• Intent-to treat (ITT) population. 158 patients randomized: 40 in placebo, 37 in 50 mg QD cohort, 41 in 50 mg BID cohort, and 40 in 80 mg QD cohort. • 3 force majeure events during the study caused missing MRI data at Week 4, 8, or 12 timepoints: Ukraine war & crisis, COVID-19 pandemic outbreak, and FDA's partial clinical hold. • Post-hoc analysis set (PHS) population. 115 patients remaining after excluding patients who missed any one of the 3 MRI data points within first 12 weeks: 27 in placebo, 30 in 50 mg QD, 29 in 50 mg BID, and 29 in 80 mg QD. • 132 patients completed 12 weeks of treatment and 127 patients completed 24 weeks of treatment.
(PHS Population, N=115) The adjusted mean cumulative number, percent reduction (orelabrutinib vs placebo) associated with p-value are estimated from a Poisson regression model with a Pearson scale parameter with a log link function and offset by log number of scans as of Week 12. Baseline number of Gd+T1 brain lesions is included in the model as a continuous covariate.
The adjusted mean cumulative numbers are estimated from Poisson regression models with a Pearson scale parameter with a log link function and offset by log number of scans as of that visit. Baseline number of Gd+T1 brain lesions is included in the model as a continuous covariate.

Structure (SMILES): C=CC(=O)N1CCC(c2ccc(C(N)=O)c(-c3ccc(Oc4ccccc4)cc3)n2)CC1 [orelabrutinib, 2-(4-phenoxyphenyl)-6-[1-(prop-2-enoyl)piperidin-4-yl]pyridine-3-carboxamide]
- average clinical score (EAE) ([1]; 30 mg/kg/day PO QD, day 15 post-immunization, vehicle 2.0): 0.9
- average clinical score (EAE) ([1]; 30 mg/kg/day PO QD, day 21, p<0.05, vehicle 1.5): 0.6
- body weight loss associated with EAE ([1]; 30 mg/kg/day PO QD, vs vehicle): reduced weight loss
- reduction of EAE score ([1]; 30 mg/kg/day oral): 50%
- EAE severity ([1]; 30 mg/kg/day oral, vs vehicle): markedly ameliorated EAE severity
- percent reduction of cumulative number of new Gd+T1 brain lesions relative to placebo ([2]; Week 12, 50 mg BID): 78.8%
- percent reduction of cumulative number of new Gd+T1 brain lesions relative to placebo ([2]; Week 12, 50 mg QD): 73.3%
- percent reduction of cumulative number of new Gd+T1 brain lesions relative to placebo ([2]; Week 12, 80 mg QD): 80.5%
- Adjusted mean cumulative number of new Gd+T1 lesions from W 4 to W 24 ([2]; 50 mg BID (N=29)): 1.08
- Adjusted mean cumulative number of new Gd+T1 lesions at Week 12 ([2]; 50 mg BID (N=29)): 0.82
- % Reduction of cumulative number of new Gd+T1 lesions from Week 4 to Week 24 vs placebo/50 mg QD switch arm ([2]; 50 mg BID, P 0.0114): 83.3%
- Adjusted mean cumulative number of new Gd+T1 lesions from W 4 to W 24 ([2]; 50 mg QD (N=30)): 2.10
- Adjusted mean cumulative number of new Gd+T1 lesions at Week 12 ([2]; 50 mg QD (N=30)): 1.14
- % Reduction of cumulative number of new Gd+T1 lesions from Week 4 to Week 24 vs placebo/50 mg QD switch arm ([2]; 50 mg QD, P 0.0958): 67.4%
- Adjusted mean cumulative number of new Gd+T1 lesions from W 4 to W 24 ([2]; 80 mg QD (N=29)): 0.50
- Adjusted mean cumulative number of new Gd+T1 lesions at Week 12 ([2]; 80 mg QD (N=29)): 0.42
- % Reduction of cumulative number of new Gd+T1 lesions from Week 4 to Week 24 vs placebo/50 mg QD switch arm ([2]; 80 mg QD, P 0.0037): 92.3%
- % Reduction of cumulative number of new Gd+T1 brain lesions vs placebo ([2]; Week 12, 50 mg BID (N=29), P 0.0073): 81.0%
- % Reduction of cumulative number of new Gd+T1 brain lesions vs placebo ([2]; Week 12, 50 mg QD (N=30), P 0.0278): 73.8%
- % Reduction of cumulative number of new Gd+T1 brain lesions vs placebo ([2]; Week 12, 80 mg QD (N=29), P 0.0018): 90.4%
- Annualized relapse rate (ARR) ([2]; Week 24, 50 mg BID): 0.12
- Annualized relapse rate (ARR) ([2]; Week 24, 50 mg QD): 0.05
- Annualized relapse rate (ARR) ([2]; Week 24, 80 mg QD): 0.06
- Annualized relapse rate (ARR) ([2]; Week 24, placebo/50 mg QD switch arm (placebo Week 1-12, orelabrutinib 50 mg QD Week 13-24)): 0.14
- Adjusted mean cumulative number of new Gd+T1 lesions from W 4 to W 24 ([2]; switch arm: placebo Week 1-12 / orelabrutinib 50 mg QD Week 13-24 (N=27)): 6.45
- Annualized relapse rate (ARR) compared to the placebo group ([2]; all orelabrutinib cohorts, Week 12, sustained through Week 24): reduced
- control of new T1 lesions ([2]; all orelabrutinib cohorts, after 4 weeks of treatment, effect sustained up to 24 weeks): Control of new T1 lesions was achieved
